Results on one molecule are retold here after patent US20250177412A1, “SMALL-MOLECULE INHIBITORS TARGETING THE BOB1/OCT1 INTERFACE” (NANTES UNIVERSITE, priority 2022, published 2025).

Read-outs that look alike come from different tables or passages of the source. Some results are limits rather than exact numbers.

Series [1] concerns mouse embryonic fibroblasts (MEFs). As to the kind of experiment: MTT assay. The format is cell-based. To be noted: data not shown. On the technique in general: Tetrazolium dyes change colour on reduction, which living cells bring about.
Series [2] concerns CD4+CD25- effector T cells. As to the kind of experiment: T cell suppression assay (B cell / CD4+CD25- T cell co-culture). The format is cell-based, human. To be noted: for inhibition at 10 µM: Homo sapiens, T-cell, read-out: T-cell proliferation (percentage inhibition). The method, then:
B cells were kept unstimulated (B resting) or stimulated (B expanded) for 24 hours with the expansion mixture containing F(ab′)2 anti-BCR, CpG ODN, CD40L, IL-2, and IL-21. FIG. 6A-B show the expression level of granzyme B measured as frequency (FIG. 6A) and by the MFI (FIG. 6B) in DMSO-treated (compound 005-) and 10 μM compound 005-treated resting (open circles) and expanded for […] (closed circles) B cells. FIG. 6C-G show resting and expanded B cells washed with fresh medium and co-cultured with autologous CPD-labelled CD4^+CD25^− effector T cells for 3 days in the presence of anti-CD3/CD28 Dynabeads. compound 005 was added to the B cells only during 24-hours of activation with the expansion mixture (FIG. 6C-D), followed by daily supplementation during three days of co-culture (FIG. 6E-G). Representative offset histogram overlays showing median fluorescence intensity of staining of gated live […] with cell proliferation dye (CPD) (FIGS. 6C, 6E and 6F). The percentage of proliferating cells is indicated for one representative donor. FIGS. 6D and 6G show corresponding summarized data for the percentage inhibition of proliferation of anti-CD3/CD28-activated CD4^+CD25^− T cells co-cultured with resting (open circles) or expanded (closed circles) B cells without BOB1 inhibitor (DMSO-treated control) or in the presence of 10 μM compound 005. Bars indicate the mean±SD. ** P<0.01, *** P<0.001. FIG. 6H-J Expression values of POU2AF1 (FIG. 6H), POU2F1 (FIG. 6I), and POU2F2 (FIG. 6J) genes encoding BOB1, OCT1 and OCT2, respectively, extracted from scRNA-seq data on B cells stimulated toward regulatory (expanded) or unstimulated (rested). Data are represented with bar plots as mean+SD of non-zero values or with dot plots represented as a percentage of positive cells (FIG. 6H-J) or the average expression in each condition (FIG. 6K). P-values are adjusted to the number of expressed genes in the dataset.
Cells were resuspended in PBS and labelled with Cell Proliferation Dye eFluor 450 (CPD) (eBioscience) at a final concentration of 10 μM at 37° C. for 10 min, kept on ice for 5 min, and washed twice with 10 mL of ice-cold RPMI 1640 10% FCS medium.
Primary total human B cells (1×10^6 cells/mL) were prestimulated for ˜24 h with the cocktail containing 10 ng/mL of IL-21 (Miltenyi Biotec), 5 μg/mL of F(ab′)2 anti-BCR Abs (Jackson ImmunoResearch Laboratories Inc.), 50 ng/ml of CD40L (R&D systems), 1 μg/mL of CpG oligonucleotides (ODN 2006, Invivogen), and 50 U/mL of IL-2 (Novartis) as previously described, in the presence of vehicle (DMSO) or 10 μM compound 005. […] The capacity of B cells to suppress effector T cell proliferation was assessed as previously described. […] T cell proliferation was evaluated as the percentage of CPD-low T cells on day 3. […]

Take `Cc1ccc(NC(=O)C2CN(c3nc(NCCCc4ccc(F)cc4)nc(NCCC(=O)O)n3)c3ccccc3O2)cc1Cl` (centres unmarked) [compound 005, 3-((4-(2-((3-chloro-4-methylphenyl)carbamoyl)-2,3-dihydro-4H-benzo[b][1,4]oxazin-4-yl)-6-((3-(4-fluorophenyl)propyl)amino)-1,3,5-triazin-2-yl)amino)propanoic acid]: the concentration showing toxicity in series [1] was not below 80 µM. For the same molecule, the “suppressive capacity of B expanded” value in series [2] (10 μM during the 24-hours pre-stimulation phase only) is recorded as “did not affect”. Moreover, in series [2] (10 μM, co-cultures of T cells and B expanded), the “suppression of effector T-cell proliferation” value is recorded as 79.7±4.9. The inhibition at 10 µM in series [2] (72 h, 10 μM, T cells only, 3 days) turned out to be 53.7 ± 5.8%; in series [2] (10 μM, co-cultures of T cells and B resting), 52.1 ± 7.1%.
